Experimental data: patent US8710079B2, “Quinoline compounds and their use for treating viral infection” (National Health Research Institutes, priority 2010, dated 2014)
Like-named read-outs stand apart in the source and are kept apart here.

How the values were obtained:
HIV-1 = experiment: microbe, parasite or virus in culture; conditions: Human immunodeficiency virus 1, PBMC
Protocol: Equal amounts of wild-type and mutant viruses were used to infect 5×10^4 peripheral blood mononuclear cells (PBMC) in 1.5 mL medium containing DMSO or various concentrations of a test compound. A half-milliliter of the culture medium was collected from each culture at days 3, 5, and 7. Viral RNA was extracted from the collected culture supernatants and the viral titers (copies/mL) were determined by real-time PCR. The percentage of inhibition was calculated as [100−(VD/VC)]×100%, where VD and VC refer to the virus titers in the presence and absence of the test compound, respectively.

[1] = tested on: Influenza A/TW/355/97 (H1N1); experiment: Anti-influenza neutralization test, various influenza virus strains; assay type: cell-based
[2] = tested on: Influenza A/TW/147/09 (H1N1); experiment: as above; assay type: cell-based
[3] = tested on: Influenza A/TW/70058/09 (H1N1); experiment: as above; assay type: cell-based
[4] = tested on: Influenza A/TW/70066/09 (H1N1); experiment: as above; assay type: cell-based
Enterovirus 71/4643/MP4 = experiment: In vitro EV 71 neutralization assay, cytopathic effect on RD cells; conditions: Enterovirus A
Protocol: (§1) This assay measured the ability of a test compound to inhibit the cytopathic effect induced by a picornavirus (EV71, Coxsackie Virus B3, or human rhinovirus 2) on RD cells. […] More specifically, 96-well tissue culture plates were seeded with 200 μL of RD cells at a concentration of 3×10^5 cells/mL in DMEM with 10% FBS. The plates were incubated for 24-30 h at 37° C. and were used at about 90% confluency. Virus (100 TCID50) mixed with different concentrations of a test compound was added to the cells and incubated at 37° C. for 1 h. After adsorption, the infected cell plates were overlaid with 50 μL of DMEM plus 5% FBS and 2% DMSO. The plate was wrapped in Parafilm and incubated at 37° C. for 64 h. At the end of incubation, the plates were fixed by the addition of 100 μL of 0.5% glutaraldehyde for 1 h at room temperature. After the removal of glutaraldehyde, the plates were stained with 0.1% crystal violet for 15 min at room temperature. The plates were washed and dried, and the density of the well was measured at 570 nm. The concentration required for a test compound to reduce the virus-induced cytopathic effect (CPE) by 50% relative to the virus control is expressed as IC50.

Coxsackie B virus 3 = experiment: In vitro Coxsackie Virus B3 neutralization assay, cytopathic effect on RD cells
Protocol: as §1

Human rhinovirus 2 = experiment: In vitro human rhinovirus 2 neutralization assay, cytopathic effect on RD cells; conditions: Rhinovirus A
Protocol: as §1

[5] = tested on: Influenza A/WSN/33 (H1N1) virus; experiment: In vitro anti-influenza virus assay (neutralization test), cytopathic effect on MDCK cells; assay type: cell-based; conditions: 72 h, read-out: IC50 (concentration reducing virus-induced cytopathic effect by 50%)
[6] = 72 h, read-out: Inhibition (%) Day 3
[7] = 120 h, read-out: Inhibition (%) Day 5
[8] = 168 h, read-out: Inhibition (%) Day 7
[9] = Influenza A/WSN/33 (H1N1), MDCK cells
[10] = Influenza A/WSN/33 (H1N1), MDCK cells, lower bound in nM, upper bound in μM

| SMILES | IC50 [5, 9] | IC50 [5, 10] | also measured |
| --- | --- | --- | --- |
| Cc1cn([C@H]2C[C@H](N=[N+]=[N-])[C@@H](CO)O2)c(=O)[nH]c1=O [AZT, zidovudine, reference compound] | – | – | inhibition at 0.04 µM (HIV-1; [6]): 30%; inhibition at 0.04 µM (HIV-1; [7]): 60%; inhibition at 0.04 µM (HIV-1; [8]): 67% |
| NC12CC3CC(CC(C3)C1)C2 [Amantadine] | – | – | IC50 [1]: 12.6 ± 6.93 µM; IC50 [2]: 1.47 ± 0.603 µM; IC50 [3]: 762 ± 280 nM; IC50 [4]: 960 ± 317 nM; IC50 (Enterovirus 71/4643/MP4): > 25 µM; IC50 (Coxsackie B virus 3): > 25 µM; IC50 (Human rhinovirus 2): > 25 µM |
| Cc1c(-c2cc(C(=O)O)c3cc(F)ccc3n2)cnn1-c1ccccc1 [Compound 3] | 1000 to 5900 nM | – | – |
| Cc1c(-c2cc(C(=O)O)c3cc(Cl)ccc3n2)cnn1-c1ccccc1 [Compound 4] | – | 10 to 999 nM | – |
| Cc1ccc(-n2ncc(-c3cc(C(=O)O)c4cc(Br)ccc4n3)c2C)c(C)c1 [Compound 5] | – | 10 to 999 nM | – |
| Cc1c(-c2cc(C(=O)O)c3cc(Br)ccc3n2)cnn1-c1ccc(F)c(F)c1 [Compound 6] | 1000 to 5900 nM | – | – |
| COc1ccc(-n2ncc(-c3cc(C(=O)O)c4cc(Br)ccc4n3)c2C)cc1 [Compound 7] | 1000 to 5900 nM | – | – |
| Cc1c(-c2cc(C(=O)O)c3cc(Br)ccc3n2)cnn1-c1ccc(Cl)c(Cl)c1 [Compound 8] | 1000 to 5900 nM | – | – |
| Cc1ccc(-n2ncc(-c3cc(C(=O)O)c4cc(Br)ccc4n3)c2C)cc1 [Compound 9] | – | 10 to 999 nM | – |
| Cc1c(-c2cc(C(=O)O)c3cc(Br)ccc3n2)cnn1-c1ccc(F)cc1 [Compound 10] | – | 10 to 999 nM | – |
| Cc1c(-c2cc(C(=O)O)c3cc(Br)ccc3n2)cnn1-c1cccc(F)c1 [Compound 11] | 1000 to 5900 nM | – | – |
| Cc1c(-c2cc(C(=O)O)c3cc(Br)ccc3n2)cnn1-c1ccc(Cl)cc1 [Compound 12] | 1000 to 5900 nM | – | – |
| Cc1c(-c2cc(C(=O)O)c3cc(Br)ccc3n2)cnn1-c1ccc(C(C)C)cc1 [Compound 13] | – | 10 to 999 nM | – |
| Cc1cc(Cl)ccc1-n1ncc(-c2cc(C(=O)O)c3cc(Br)ccc3n2)c1C [Compound 14] | – | 10 to 999 nM | inhibition at 10 µM (HIV-1; [6]): 20%; inhibition at 0.01 µM (HIV-1; [7]): 48%; inhibition at 10 µM (HIV-1; [7]): 59%; inhibition at 10 µM (HIV-1; [8]): 86% |
| Cc1cc(C)cc(-n2ncc(-c3cc(C(=O)O)c4cc(Br)ccc4n3)c2C)c1 [Compound 15] | – | 10 to 999 nM | – |
| Cc1c(-c2cc(C(=O)O)c3cc(Br)ccc3n2)cnn1-c1ccc([N+](=O)[O-])cc1 [Compound 16] | 1000 to 5900 nM | – | – |
| Cc1ccccc1-n1ncc(-c2cc(C(=O)O)c3cc(Br)ccc3n2)c1C [Compound 17] | – | 10 to 999 nM | – |
| COc1cccc(-n2ncc(-c3cc(C(=O)O)c4cc(Br)ccc4n3)c2C)c1 [Compound 18] | 1000 to 5900 nM | – | – |
| O=C(O)c1cc(-c2cc(-c3ccccc3)no2)nc2ccc(Br)cc12 [Compound 19] | 1000 to 5900 nM | – | – |
| Cc1c(-c2cc(C(=O)O)c3cc(Br)ccc3n2)cnn1-c1ccc(Br)cc1 [Compound 20] | – | 10 to 999 nM | – |
| Cc1c(-c2cc(C(=O)O)c3cc(Br)ccc3n2)cnn1-c1ccc(F)cc1F [Compound 21] | 1000 to 5900 nM | – | – |
| CCCc1cccc(-n2ncc(-c3cc(C(=O)O)c4cc(Br)ccc4n3)c2C)c1 [Compound 22] | – | 10 to 999 nM | – |
| Cc1c(-c2cc(C(=O)O)c3cc(Br)ccc3n2)cnn1-c1ccc(C(F)(F)F)cc1 [Compound 23] | 1000 to 5900 nM | – | – |
| Cc1c(-c2cc(C(=O)O)c3cc(Br)ccc3n2)cnn1-c1ccccc1F [Compound 24] | – | – | IC50 ([5]; MDCK): 10 to 999 nM |
| Cc1c(-c2cc(C(=O)O)c3cc(Br)ccc3n2)cnn1-c1cccc(Cl)c1 [Compound 25] | – | – | IC50 ([5]; MDCK): 10 to 999 nM |
| Cc1cccc(-n2ncc(-c3cc(C(=O)O)c4cc(Br)ccc4n3)c2C)c1 [Compound 26] | – | – | IC50 ([5]; MDCK): 10 to 999 nM |
| Cc1c(-c2cc(C(=O)O)c3cc(Br)ccc3n2)cnn1-c1ccc(Cl)cc1Cl [Compound 27] | – | – | IC50 ([5]; MDCK): 10 to 999 nM |
| Cc1c(-c2cc(C(=O)O)c3cc(Br)ccc3n2)cnn1-c1cccc([N+](=O)[O-])c1 [Compound 29] | 6000 to 25000 nM | – | – |

| SMILES | IC50 [5, 9] | IC50 [5, 10] | also measured |
| --- | --- | --- | --- |
| Cc1cccc(-n2ncc(-c3cc(C(=O)O)c4cc(Br)ccc4n3)c2C)c1C [Compound 30] | – | 10 to 999 nM | – |
| Cc1ccc(Cl)cc1-n1ncc(-c2cc(C(=O)O)c3cc(Br)ccc3n2)c1C [Compound 31] | – | 10 to 999 nM | – |
| Cc1ccc(C)c(-n2ncc(-c3cc(C(=O)O)c4cc(Cl)ccc4n3)c2C)c1 [Compound 33] | – | 10 to 999 nM | – |
| Cc1ccc(Cl)cc1-n1ncc(-c2cc(C(=O)O)c3cc(Cl)ccc3n2)c1C [Compound 34] | – | 10 to 999 nM | – |
| Cc1cccc(C)c1-n1ncc(-c2cc(C(=O)O)c3cc(Br)ccc3n2)c1C [Compound 36] | 1000 to 5900 nM | – | – |
| Cc1cc(C)c(-n2ncc(-c3cc(C(=O)O)c4cc(Br)ccc4n3)c2C)c(C)c1 [Compound 37] | 1000 to 5900 nM | – | – |
| CCc1ccccc1-n1ncc(-c2cc(C(=O)O)c3cc(Br)ccc3n2)c1C [Compound 38] | 1000 to 5900 nM | – | – |
| Cc1c(-c2cc(C(=O)O)c3cc(Br)ccc3n2)cnn1-c1cc(Cl)ccc1Cl [Compound 39] | 6000 to 25000 nM | – | – |
| Cc1c(-c2cc(C(=O)O)c3cc(Br)ccc3n2)cnn1-c1cc(F)ccc1F [Compound 40] | 6000 to 25000 nM | – | – |
| Cc1c(-c2cc(C(=O)O)c3cc(Br)ccc3n2)cnn1-c1c(Cl)cccc1Cl [Compound 41] | 6000 to 25000 nM | – | – |
| Cc1c(-c2cc(C(=O)O)c3cc(Br)ccc3n2)cnn1-c1c(Cl)cc(Cl)cc1Cl [Compound 42] | 1000 to 5900 nM | – | – |
| O=C(O)c1cc(-c2cnn(-c3ccccc3)c2)nc2ccc(Br)cc12 [Compound 43] | 6000 to 25000 nM | – | – |
| Cc1nc(-c2ccccc2)sc1-c1cc(C(=O)O)c2cc(Br)ccc2n1 [Compound 46] | 1000 to 5900 nM | – | – |
| Cn1c(-c2ccccc2)ccc1-c1cc(C(=O)O)c2cc(Br)ccc2n1 [Compound 47] | – | 10 to 999 nM | – |
| Cc1c(-c2cc(C(=O)O)c3cc(Br)ccc3n2)ccn1-c1ccccc1 [Compound 48] | 1000 to 5900 nM | – | – |
| Cc1c(-c2cc(C(=O)O)c3cc(Br)ccc3n2)noc1-c1ccccc1 [Compound 49] | 1000 to 5900 nM | – | – |
| Cc1ccc(C)c(-n2ncc(-c3cc(C(=O)O)c4cc(F)ccc4n3)c2C)c1 [Compound 50] | 1000 to 5900 nM | – | – |
| Cc1c(-c2cc(C(=O)O)c3cc(Br)ccc3n2)ncn1-c1ccccc1 [Compound 51] | – | 10 to 999 nM | – |
| Cc1c(-c2cc(C(=O)O)c3cc(Br)ccc3n2)cnn1-c1cc(Cl)cc(Cl)c1 [Compound 57] | 1000 to 5900 nM | – | – |
| Cc1ccc(C)c(-n2ncc(-c3cc(C(=O)O)c4cc(Br)cc(Br)c4n3)c2C)c1 [Compound 58] | 1000 to 5900 nM | – | – |
| Cc1ccc(C)c(-n2ncc(-c3cc(C(=O)O)c4cc(Br)cc(C)c4n3)c2C)c1 [Compound 59] | 1000 to 5900 nM | – | – |
| Cc1ccc(C)c(-n2ncc(-c3cc(C(=O)O)c4cc(I)ccc4n3)c2C)c1 [Compound 60] | – | 10 to 999 nM | – |
| Cc1cc(-c2cc(C(=O)O)c3cc(Br)ccc3n2)nn1-c1nc2ccccc2s1 [Compound 73] | 1000 to 5900 nM | – | – |
| Cc1cc(C(F)(F)F)cc(-n2nc(-c3cc(C(=O)O)c4cc(Br)ccc4n3)cc2C)n1 [Compound 74] | 1000 to 5900 nM | – | – |
| Cc1cc(-c2cc(C(=O)O)c3cc(Br)ccc3n2)nn1-c1ccc2ccccc2n1 [Compound 75] | 1000 to 5900 nM | – | – |
| Cc1c(-c2ccccc2)cccc1-c1cc(C(=O)O)c2cc(Br)ccc2n1 [Compound 76] | 1000 to 5900 nM | – | – |
| CC(=O)N[C@H]1[C@H]([C@H](O)[C@H](O)CO)OC(C(=O)O)=C[C@@H]1N=C(N)N [Relenza, Zanamivir] | – | – | IC50 [1]: 1.05 ± 0.458 µM; IC50 [2]: 22.5 ± 3.47 µM; IC50 [3]: 860 ± 360 nM; IC50 [4]: 809 ± 150 nM; IC50 (Enterovirus 71/4643/MP4): > 25 µM; IC50 (Coxsackie B virus 3): > 25 µM; IC50 (Human rhinovirus 2): > 25 µM |
